The source of these data is ChEMBL document CHEMBL1135311, “N-Cycloalkanoyl-L-phenylalanine derivatives as VCAM/VLA-4 antagonists” (Bioorg Med Chem Lett, 2002).

In assay [1] the target is T1, Integrin alpha-4/beta-1 (Homo sapiens, UniProt P05556+P13612). The assay is described as follows: Inhibitory binding concentration determined against VCAM/VLA-4 in ELISA. In kind it is protein-complex assay. In general terms: In an ELISA, binding on a coated surface is turned into a signal by an enzyme label.
In assay [2] the target is T1, Integrin alpha-4/beta-1. The assay is described as follows: Inhibition of Very late antigen 4/vascular cell adhesion molecule 1 interaction in ELISA. Format: protein-complex assay.
The target of assay [3] is T1, Integrin alpha-4/beta-1. The assay is described as follows: Inhibitory binding concentration determined against VCAM/VLA-4 in Ramos. In kind it is protein-complex assay.
The target in assay [4] is T1, Integrin alpha-4/beta-1. The assay is described as follows: Inhibition of Very late antigen 4 (VLA-4) of Ramos cell adhesion to vascular cell adhesion molecule 1 (VCAM-1). Format: cell-based.

For orientation: IC50 means the concentration that gives 50% inhibition. A higher IC50 goes with weaker potency.

SMILES strings stand for the structures.

T1 sequence (P05556 whole entry): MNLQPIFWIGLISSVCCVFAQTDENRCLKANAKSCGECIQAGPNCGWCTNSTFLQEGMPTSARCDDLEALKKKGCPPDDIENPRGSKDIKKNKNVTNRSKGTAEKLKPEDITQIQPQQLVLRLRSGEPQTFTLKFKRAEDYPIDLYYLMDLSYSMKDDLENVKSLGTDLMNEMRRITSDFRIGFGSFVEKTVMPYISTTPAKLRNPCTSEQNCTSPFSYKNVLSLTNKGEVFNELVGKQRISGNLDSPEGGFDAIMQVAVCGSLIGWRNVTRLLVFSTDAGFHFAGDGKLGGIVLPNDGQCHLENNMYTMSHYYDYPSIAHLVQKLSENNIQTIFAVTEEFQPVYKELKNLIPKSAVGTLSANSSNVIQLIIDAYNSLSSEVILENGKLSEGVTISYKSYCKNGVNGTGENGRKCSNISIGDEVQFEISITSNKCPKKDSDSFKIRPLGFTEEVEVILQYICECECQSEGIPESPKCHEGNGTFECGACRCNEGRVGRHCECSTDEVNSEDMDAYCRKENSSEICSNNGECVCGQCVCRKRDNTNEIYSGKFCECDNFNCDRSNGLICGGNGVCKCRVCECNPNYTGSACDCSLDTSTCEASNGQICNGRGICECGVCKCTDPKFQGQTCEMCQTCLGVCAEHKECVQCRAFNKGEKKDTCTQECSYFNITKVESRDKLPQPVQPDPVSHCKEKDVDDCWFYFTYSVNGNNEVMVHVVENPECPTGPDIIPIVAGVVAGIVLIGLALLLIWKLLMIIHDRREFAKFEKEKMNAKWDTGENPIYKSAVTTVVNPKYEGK
T1 sequence (P13612 whole entry): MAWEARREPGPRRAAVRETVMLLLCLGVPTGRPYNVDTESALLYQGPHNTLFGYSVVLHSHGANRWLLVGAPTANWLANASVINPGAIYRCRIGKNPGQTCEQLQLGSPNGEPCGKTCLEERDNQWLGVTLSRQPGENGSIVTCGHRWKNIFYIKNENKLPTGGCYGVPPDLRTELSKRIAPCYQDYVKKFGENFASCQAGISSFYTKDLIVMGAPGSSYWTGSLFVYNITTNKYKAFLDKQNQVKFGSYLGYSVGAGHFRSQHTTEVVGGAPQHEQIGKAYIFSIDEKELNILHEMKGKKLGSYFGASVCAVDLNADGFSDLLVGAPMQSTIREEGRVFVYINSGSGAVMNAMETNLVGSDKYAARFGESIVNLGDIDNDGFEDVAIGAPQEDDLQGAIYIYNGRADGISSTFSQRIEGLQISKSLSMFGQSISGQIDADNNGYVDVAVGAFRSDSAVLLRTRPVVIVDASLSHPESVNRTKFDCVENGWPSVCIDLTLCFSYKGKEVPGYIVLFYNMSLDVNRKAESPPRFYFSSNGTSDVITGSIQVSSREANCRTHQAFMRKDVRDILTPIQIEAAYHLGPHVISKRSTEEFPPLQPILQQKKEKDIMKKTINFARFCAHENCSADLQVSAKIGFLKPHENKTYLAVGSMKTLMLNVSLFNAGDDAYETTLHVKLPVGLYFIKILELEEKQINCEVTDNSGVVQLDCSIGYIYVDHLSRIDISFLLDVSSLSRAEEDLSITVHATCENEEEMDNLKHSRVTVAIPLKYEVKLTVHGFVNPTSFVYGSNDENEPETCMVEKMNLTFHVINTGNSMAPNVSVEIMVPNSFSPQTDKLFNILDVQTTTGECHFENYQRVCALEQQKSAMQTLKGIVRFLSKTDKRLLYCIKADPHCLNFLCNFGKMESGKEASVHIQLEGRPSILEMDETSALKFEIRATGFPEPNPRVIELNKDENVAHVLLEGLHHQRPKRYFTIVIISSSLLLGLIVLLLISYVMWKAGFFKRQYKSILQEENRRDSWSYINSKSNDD

With `NC(=O)NCCC1(C(=O)N[C@@H](Cc2ccc(NC(=O)c3c(Cl)cccc3Cl)cc2)C(=O)O)CCCC1`, at Integrin alpha-4/beta-1 [1], the half-inhibitory concentration (IC50) is 0.46 nM.

For the compound `CSCCCCC1(C(=O)N[C@@H](Cc2ccc(NC(=O)c3c(Cl)cccc3Cl)cc2)C(=O)O)CCCC1`, the IC50 at Integrin alpha-4/beta-1 [2] was 1.1 nM. As to `N#CCCCCC1(C(=O)N[C@@H](Cc2ccc(NC(=O)c3c(Cl)cccc3Cl)cc2)C(=O)O)CCCC1`, at Integrin alpha-4/beta-1 [1], the IC50 was 0.52 nM. As for `Cn1nnnc1-c1cccc(CC2(C(=O)N[C@@H](Cc3ccc(NC(=O)c4c(Cl)cccc4Cl)cc3)C(=O)O)CCCC2)c1`, the half-inhibitory concentration (IC50) at Integrin alpha-4/beta-1 [3] was 100 nM; on Integrin alpha-4/beta-1 [1] it was 0.4 nM. The corresponding values for `Cn1nnnc1-c1ccc(CC2(C(=O)N[C@@H](Cc3ccc(NC(=O)c4c(Cl)cccc4Cl)cc3)C(=O)O)CCCCC2)cc1` are 61 nM and 1.3 nM. For `COCCCCC1(C(=O)N[C@@H](Cc2ccc(NC(=O)c3c(Cl)cccc3Cl)cc2)C(=O)O)CCCC1`, on Integrin alpha-4/beta-1 [3], the 50% inhibitory concentration (IC50) was 29 nM. `COCCC1(C(=O)N[C@@H](Cc2ccc(NC(=O)c3c(Cl)cccc3Cl)cc2)C(=O)O)CCCC1` registered an IC50 at Integrin alpha-4/beta-1 [3] of 12 nM. In the case of `COc1ccc(CC2(C(=O)N[C@@H](Cc3ccc(NC(=O)c4c(Cl)cccc4Cl)cc3)C(=O)O)CCCC2)cc1`, the half-maximal inhibitory concentration (IC50) is 37 nM at Integrin alpha-4/beta-1 [3] and 0.6 nM on Integrin alpha-4/beta-1 [1].

`O=C(Nc1ccc(C[C@H](NC(=O)C2(Cc3ccccc3)CCCC2)C(=O)O)cc1)c1c(Cl)cccc1Cl`: the half-maximal inhibitory concentration (IC50) amounted to 340 nM on Integrin alpha-4/beta-1 [3] and 6.6 nM on Integrin alpha-4/beta-1 [1]. Take `O=C(Nc1ccc(C[C@H](NC(=O)C2(c3ccccc3)CCCC2)C(=O)O)cc1)c1c(Cl)cccc1Cl`: the 50% inhibitory concentration (IC50) on Integrin alpha-4/beta-1 [1] came to 1.7 nM. `Cn1nnnc1-c1ccc(CC2(C(=O)N[C@@H](Cc3ccc(NC(=O)c4c(Cl)cccc4Cl)cc3)C(=O)O)CCCC2)cc1`: the half-maximal inhibitory concentration (IC50) at Integrin alpha-4/beta-1 [3] was 19 nM. As for `CS(=O)(=O)CCCCC1(C(=O)N[C@@H](Cc2ccc(NC(=O)c3c(Cl)cccc3Cl)cc2)C(=O)O)CCCC1`, the results for the concentration for half-maximal inhibition (IC50) at Integrin alpha-4/beta-1 [4] and against Integrin alpha-4/beta-1 [2] were 8 nM and 0.15 nM, respectively. Take `O=C(Nc1ccc(C[C@H](NC(=O)C2(Cc3ccccc3Cl)CCCC2)C(=O)O)cc1)c1c(Cl)cccc1Cl`: the concentration for half-maximal inhibition (IC50) on Integrin alpha-4/beta-1 [3] amounted to 350 nM. `COCC1(C(=O)N[C@@H](Cc2ccc(NC(=O)c3c(Cl)cccc3Cl)cc2)C(=O)O)CCCC1`: the results for the half-inhibitory concentration (IC50) at Integrin alpha-4/beta-1 [3] and on Integrin alpha-4/beta-1 [1] were 134 nM and 1 nM, respectively. The corresponding values for `CNC(=O)NCCC1(C(=O)N[C@@H](Cc2ccc(NC(=O)c3c(Cl)cccc3Cl)cc2)C(=O)O)CCCC1` are 11 nM and 0.1 nM. In the case of `C=CCCC1(C(=O)N[C@@H](Cc2ccc(NC(=O)c3c(Cl)cccc3Cl)cc2)C(=O)O)CCCC1`, on Integrin alpha-4/beta-1 [3], the IC50 is 64 nM. Take `[N-]=[N+]=NCCC1(C(=O)N[C@@H](Cc2ccc(NC(=O)c3c(Cl)cccc3Cl)cc2)C(=O)O)CCCC1`: the IC50 on Integrin alpha-4/beta-1 [1] is 0.53 nM. The compound `C[S+]([O-])CCC1(C(=O)N[C@@H](Cc2ccc(NC(=O)c3c(Cl)cccc3Cl)cc2)C(=O)O)CCCC1` (some centres undefined) returned an IC50 against Integrin alpha-4/beta-1 [2] of 0.21 nM. Consider `CS(=O)(=O)CCCC1(C(=O)N[C@@H](Cc2ccc(NC(=O)c3c(Cl)cccc3Cl)cc2)C(=O)O)CCCC1`, for which the concentration for half-maximal inhibition (IC50) on Integrin alpha-4/beta-1 [4] worked out at 528 nM; against Integrin alpha-4/beta-1 [2], 1.8 nM. For the compound `CS(=O)(=O)CCCCC1(C(=O)N[C@@H](Cc2ccc(NC(=O)c3c(Cl)cccc3Cl)cc2)C(=O)O)CCC1`, the 50% inhibitory concentration (IC50) was found to be 6 nM at Integrin alpha-4/beta-1 [4] and 0.1 nM at Integrin alpha-4/beta-1 [2]. Turning to `COc1cccc(CC2(C(=O)N[C@@H](Cc3ccc(NC(=O)c4c(Cl)cccc4Cl)cc3)C(=O)O)CCCC2)c1`, the half-inhibitory concentration (IC50) on Integrin alpha-4/beta-1 [3] was 170 nM.

On to `[N-]=[N+]=NCCCCC1(C(=O)N[C@@H](Cc2ccc(NC(=O)c3c(Cl)cccc3Cl)cc2)C(=O)O)CCCC1`, for which the IC50 at Integrin alpha-4/beta-1 [3] is 142 nM; on Integrin alpha-4/beta-1 [1], 1.64 nM. Take `N#CCC1(C(=O)N[C@@H](Cc2ccc(NC(=O)c3c(Cl)cccc3Cl)cc2)C(=O)O)CCCC1`: the IC50 on Integrin alpha-4/beta-1 [1] is 1.1 nM. In the case of `COCCC1(C(=O)N[C@@H](Cc2ccc(NC(=O)c3c(Cl)cccc3Cl)cc2)C(=O)O)CCC1`, the figures for the concentration for half-maximal inhibition (IC50) on Integrin alpha-4/beta-1 [3] and at Integrin alpha-4/beta-1 [1] were 17 nM and 0.61 nM, respectively. The corresponding values for `CC(=O)CCCC1(C(=O)N[C@@H](Cc2ccc(NC(=O)c3c(Cl)cccc3Cl)cc2)C(=O)O)CCCC1` are 350 nM and 7.8 nM.

The compound `CS(=O)(=O)CCC1(C(=O)N[C@@H](Cc2ccc(NC(=O)c3c(Cl)cccc3Cl)cc2)C(=O)O)CCCC1` yielded an IC50 at Integrin alpha-4/beta-1 [2] of 0.8 nM. Turning to `CN(C)CCC1(C(=O)N[C@@H](Cc2ccc(NC(=O)c3c(Cl)cccc3Cl)cc2)C(=O)O)CCCC1`, the IC50 at Integrin alpha-4/beta-1 [3] amounted to 89 nM; on Integrin alpha-4/beta-1 [1] it was 3.4 nM. For the compound `O=C(NCCC1(C(=O)N[C@@H](Cc2ccc(NC(=O)c3c(Cl)cccc3Cl)cc2)C(=O)O)CCCC1)Nc1ccccc1`, the figures for the IC50 at Integrin alpha-4/beta-1 [3] and on Integrin alpha-4/beta-1 [1] were 914 nM and 5.8 nM, respectively. For `COc1ccc(CC2(C(=O)N[C@@H](Cc3ccc(NC(=O)c4c(Cl)cccc4Cl)cc3)C(=O)O)CCCC2)cc1OC`, in that order: 95 nM and 0.8 nM.
